# In patent US6677311B1, “Inducible HSV-TK in transformed cell populations” (priority 1988, dated 2004):
# How the values were obtained:
# [1] = system: rat fibroblast cell line #3B; experiment: Cell growth assay, HSV1-TK expressing 3B cells; type: cell-based
# From the text: To examine the effect on cellular DNA replication, the rat fibroblast cell line #3B (see Pfahl, et al. Proc. UCLA Symp. Conf. Steroid Hormone Action, ed. Ringold, G. (Liss, N.Y.), Vol. 75:161-168 (1987) that stably expresses the glucocorticoid inducible MTV-HSV1-TK gene, was used. Addition of Dex to these cells leads to a 50-fold increase in HSV1-TK activity. The effect of the drugs on the 3B cells was compared to the one obtained on the control rat 208 fibroblast cell line (see Quade, K. (1979) in Virology, 98:461-465 (1979), a cell line not expressing HSV1-TK). The experiments were performed by seeding cells at low density (3×10^4) in Dulbecco media containing 10% FCS. Cells were incubated with varying concentrations of drug placed in the media 12 hours after the cells were plated either in the presence or in the absence of 10^−7 M Dexamethasone. After a total period of 72 hours, viable cells were recognized by Trypan blue exclusion. Cell numbers were determined with a Neubauer Hemocytometer. The efficacy of the drugs was monitored as reduction in the total number of viable cells.
# COS cells = experiment: Inhibition of plasmid replication in cotransfected COS cells expressing HSV1-TK; type: cell-based, monkey; settings: 10 μM drug; for reduction of total plasmid copy number (pSV2CAT) relative to no drug treatment: COS cells cotransfected with pSV2CAT, pApS1 (MTV-HSV1-TK), pRShGR, Dex 10^-7 M, 36 h; for decrease of replication of PRShGR': same cotransfection, similar to pSV2CAT
# Method: The possibility was tested that HSVI-TK expressed from a transfected plasmid could metabolize anti-herpetic nucleosides to substrates capable of being metabolized by a cellular DNA polymerase. In principle, the incorporation of these activated drugs should lead to a net decrease in cellular DNA replication. Accordingly, a plasmid capable of replicating in COS cells [monkey kidney cells which express T antigen (Tag); See Gluzman, Y. in Cell, 23:175-182 (1981)], namely pSV2CAT (See FIG. 1a; a plasmid that contains the Simian virus 40 promoter region linked to the chloramphenicol acetyltransferase (CAT) gene; See Gorman, et al. in Mol. Cell. Biol., 2:1044-1051(1982)) was cotransfected with a plasmid, pApSI (a plasmid that contains the mouse mammary tumor virus long terminal repeat (MTV-LTR) linked to the HSV1-TK gene; See Chandler, et al., in Cell, 33:489-499 (1983)), expressing HSV1-TK gene under the control of the glucocorticoid inducible promoter of the mouse mammary tumor virus (MTV) (see FIG. 1a). Here, the expression of TK is dependent on both the presence of glucocorticoids, such as the synthetic dexamethasone (Dex), and the glucocorticoid receptor which activate the MTV-promoter in the presence of Dex. For this reason, a human glucocorticoid receptor (hGR) expression vector, PRShGR' (a human glucocorticoid receptor (hGR) expression vector that contains the Rous sarcoma virus long terminal repeat (RSV-LTR) linked to the human glucocorticoid receptor; See Giguere, et al., in Cell, 46:645-652 (1986)), was also cotransfected to insure high levels of this transacting factor. PRShGR' itself contains the origin of replication of SV40 and therefore is able to replicate in COS cells.
# Semi-confluent COS cells were cotransfected by the calcium phosphate technique (See Graham, F. L. and van der Eb, A. J., Virology, 52:456-467 (1973) with 1 μg of pSV2CAT, 5 μg of pApS1 and 1 μg of pRShGR' and analyzed 36 hours later. The effect of ACV or FIAU on the replication of pSV2CAT was monitored by the reduction in the number of molecules of this plasmid as compared to a similar experiment conducted in the absence of these drugs. The cells were grown in Dulbecco media containing 5% FCS. Before each experiment, Dex, at a concentration of 10^−7 M, was added. Where the nucleoside analogs were tested, either ACV or FIAU was added to the media at a concentration of 10 μM. When the cells were trypsinized and washed after 24 hours, and then replaced, the new media contained the same concentration of Dex and ACV or FIAU as before. 12 hours later the cells were harvested and plasmid DNA was recovered. The plasmids were recovered from the transfected cells by the method of Hirt (see J. Mol. Biol., 26:365-269 (1967)). […]
# spleen and thymus = experiment: FIAU cell killing in KHTK transgenic mice (miniosmotic pump); type: in vivo, mouse
# Method: Furthermore, to test if the protein was biologically active, a TK assay [See Fyfe et al., J. Biol. Chem. 253:8721-8727 (1978)] was performed on extracts from these tissues. […] To evaluate the efficacy of the system in vivo, an experiment was performed in which transgenic and non-transgenic littermates were implanted subcutaneously with a miniosmotic pump (model 2002, Alzet, Alza Corp., Palo Alto, Calif.). Transgenic and nontransgenic littermates were then treated for one week with a 50 mg/ml solution of FIAU in PBS released by the Miniosmotic pump. FIAU was chosen because it was most efficient in blocking the DNA replication in vitro. The dose was calculated to obtain serum levels of the drug shown to be effective in cell culture. The animals were sacrificed one week after the pump was implanted. […] In the transgenic mouse, most organs were also normal with the dramatic exception of the spleen and thymus which were visually atrophied.
# [2] = transgenic mouse, 50 mg/ml FIAU in PBS by miniosmotic pump, one week
SMILES,"cell death ([1]; 3.0 μM ACV, 3B cells in the presence of Dex, 72 h)","cell death ([1]; 10 μM ACV, 3B cells in the presence of Dex)",toxicity independent of the presence or absence of Dex ([1]; 100 μM ACV),"cell death ([1]; 100 μM ACV, 3B cells in the presence of Dex)","effect on number of viable cells ([1]; 0.1 to 1.0 μM, 72 h)",reduction of total plasmid copy number (pSV2CAT) relative to no drug treatment (COS cells),decrease of replication of PRShGR' (COS cells),reduction of viability ([1]; 0.1 μM FIAU),"cell death ([1]; 3.0 μM FIAU, in the absence of severe non-specific toxicity)","autopsy findings in control mouse (spleen and thymus; nontransgenic littermate, one week of FIAU treatment)",reduction of the cell number in the spleen (spleen and thymus; [2]),reduction of the cell number in the thymus (spleen and thymus; [2])
"Nc1nc2c(ncn2COCCO)c(=O)[nH]1 [ACV, 9-[(2-hydroxyethoxy)methyl]guanine]",20%,60%,non-specific toxicity,98%,no effect,40%,40%,,,,,
"O=c1[nH]c(=O)n([C@H]2O[C@H](CO)[C@@H](O)[C@@H]2F)cc1I [FIAU, 1-(2-deoxy-2-fluoro-a-D-arabinofuranosil)-5-iodouracil]",,,,,,70%,70%,more than 60%,98%,no apparent toxic effects,57%,83%
